What was measured:
[1] = test system: patients with luminal B tumors; experiment: Kaplan Meier analysis of overall survival, FinHER patients with luminal B tumors; type: in vivo, human; set-up: overall survival: concentration or dose not given beside the values; details: for HR, overall survival: docetaxel vs vinorelbine
From the text: FIG. 10 depicts a Kaplan Meier analysis of the overall survival of patients with luminal B tumors. […] B: en the tumor subtype is defined by IHC, the benefit of docetaxel for luminal B patients cannot be shown (95% vs. 92%, HR 0.617; CI 0.235-1.623).
FIG. 11 depicts a Kaplan Meier analysis of the overall survival of patients with luminal B tumors, adjusted for tumor histologic type by Cox Regression as specified in the SAP. A: The prediction of the docetaxel benefit by RT-qPCR kit remains significant (97% vs. 88%, HR 0.232; CI 0.087-0.624). B: Subtyping by IHC is not predictive for a docetaxel benefit (96% vs. 92%, HR 0.510; CI 0.184-1.414).
(§1) For the evaluation of breast tumors, 855 out of 1010 breast cancer patients of the FinHER study (Joensuu et al. (2006), N Engl J Med, 354:809-820) could be used. The mean cut-off values (given as 40-ΔCT values) were as follows: HER2: 38; ESR1: 34; PGR: 30,2; Ki67: 31.7; and RACGAP1: 34.2. The cut-off values for HER2 and ESR1 were determined based on evaluation of previous studies (Koutras et al. (2008), Brit. J. of Cane., 99:1775-1785; Pentheroudakis et al. (2009), Breast Cancer Res Treat 2009, 116:131-143) using 268 samples and were applied to the FinHER study (proportional hazards model validation). CALM2 served as reference gene.
(§2) FIGS. 10 to 19 depict Kaplan-Meier survival curves for different tumor subtypes (luminal B, HER2-positive, luminal A, and triple-negative breast cancer [TNBC]) treated with different chemotherapy agents (docetaxel or vinorelbine). Subytpes defined by RT-qPCR according to the present invention are shown in panel A, whereas subtypes defined by IHC are shown in panel B. Dotted lines mark the 5 year time point for outcome calculations.

luminal B tumor patients = experiment: Kaplan Meier analysis of distant metastasis free survival (DMFS), luminal B tumor patients; type: in vivo, human; details: for distant metastasis free survival: adjusted for number of metastatic lymph nodes, tumor size and histologic type, 5 years; for distant metastasis free survival (DMFS): 5 year time point
From the text: FIG. 12 depicts a Kaplan Meier analysis of distant metastasis free survival (DMFS) of luminal B tumor patients. A: When defined by RT-qPCR, luminal B patients have a higher probability to remain free of distant metastasis when treated with docetaxel-FEC as compared to vinorelbine-FEC (89% vs. 78% respectively, HR 0.471; CI 0.263-0.843). B: When luminal B tumors are defined by IHC, survival differences are not observed between different treatment regimens (87% vs. 86%, HR 0.938 CI 0.474-1.856).
FIG. 13 depicts a Kaplan Meier analysis of distant metastasis free survival of patients with luminal B tumors, adjusted for number of metastatic lymph nodes, tumor size and histologic type by Cox Regression as specified in the SAP. A: By using the subtyping assay of the present invention the effect remains significant (90 vs. 78%, HR 0.409; CI 0.219-0.764). B: By contrast there is no effect when tumor subtyping occurs by IHC (89% vs. 85%, HR 0.674; CI 0.307-1.481).
as §1, §2

[2] = test system: HER2-positive tumor patients; experiment: Kaplan Meier analysis of overall survival, HER2-positive tumor patients; type: in vivo, human; details: for HR, overall survival: docetaxel vs vinorelbine; for overall survival: 5 year time point
From the text: FIG. 14 depicts a Kaplan Meier analysis of the overall survival of HER2-positive tumor patients. […] B: Similar results are shown for tumors subtyped by IHC (86% vs. 89%, HR 1.175; CI 0.518-2.663).
as §1, §2

HER2-positive tumors = experiment: Kaplan Meier analysis of distant metastasis free survival, HER2-positive tumors; type: in vivo, human; details: for HR, DMFS: docetaxel vs vinorelbine; for distant metastasis free survival: 5 year time point
Experimental: FIG. 15 depicts a Kaplan Meier analysis of distant metastasis free survival of HER2-positive tumors.
as §1, §2

luminal A tumors = experiment: Kaplan Meier analysis of overall survival, luminal A tumors; type: in vivo, human; details: for HR, overall survival: docetaxel vs vinorelbine; for overall survival: 5 year time point
From the text: FIG. 16 depicts a Kaplan Meier analysis of overall survival of luminal A tumors. […] B: By contrast, when defined by IHC, luminal A patients show a weak, yet non-significant trend towards longer overall survival (97 vs. 93% HR 0.443; CI 0.114-1.716) when treated with docetaxel as compared to vinorelbine.
as §1, §2

luminal A tumor patients = experiment: Kaplan Meier analysis of distant metastasis free survival, luminal A tumor patients; type: in vivo, human; details: for HR, DMFS: docetaxel vs vinorelbine; for distant metastasis free survival: 5 year time point
Experimental: FIG. 17 depicts a Kaplan Meier analysis of distant metastasis free survival of luminal A tumor patients.
as §1, §2

TNBC tumor patients [3] = experiment: Kaplan Meier analysis of overall survival, TNBC tumor patients; type: in vivo, human; details: for HR, overall survival: docetaxel vs vinorelbine; for overall survival: 5 year time point
From the text: FIG. 18 depicts a Kaplan Meier analysis of overall survival of TNBC tumor patients. […] B: When defined by IHC, TNBC patients show a weak, yet non-significant trend towards longer overall survival (88% vs. 80%, HR 0.552; CI 0.207-1.472).
as §1, §2

TNBC tumor patients [4] = experiment: Kaplan Meier analysis of distant metastasis free survival, TNBC tumor patients; type: in vivo, human; details: for distant metastasis free survival: 5 year time point; for HR, DMFS: docetaxel vs vinorelbine
From the text: FIG. 19 depicts a Kaplan Meier analysis of distant metastasis free survival of TNBC tumor patients. […] B: IHC-defined TNBC patients show a weak, yet non-significant trend towards longer distant metastasis free survival (82% vs. 72%, HR 0.615; CI 0.284-1,333) when treated with docetaxel as compared to vinorelbine.
as §1, §2

[5] = FinHER clinical trial; docetaxel compared with vinorelbine; cited from earlier work
[6] = FIG. 10B, luminal B defined by IHC, 5 year time point
[7] = FIG. 11A, luminal B by RT-qPCR, adjusted for tumor histologic type by Cox Regression, 5 years
[8] = FIG. 11B, luminal B by IHC, adjusted for tumor histologic type by Cox Regression, 5 years
[9] = FIG. 14A, HER2-positive defined by RT-qPCR
[10] = FIG. 14B, HER2-positive subtyped by IHC
[11] = FIG. 15A, HER2-positive defined by method of the invention (RT-qPCR)
[12] = FIG. 15B, HER2-positive defined by IHC
[13] = FIG. 16A, luminal A defined by RT-qPCR
[14] = FIG. 16B, luminal A defined by IHC
[15] = FIG. 17A, luminal A defined by RT-qPCR
[16] = FIG. 17B, luminal A IHC-subtyped
[17] = FIG. 18A, TNBC defined by RT-qPCR
[18] = FIG. 10A, luminal B defined by RT-qPCR, 5 year time point, combined with FEC
[19] = FIG. 12A, luminal B defined by RT-qPCR
[20] = FIG. 12B, luminal B defined by IHC

| Molecule | overall survival [1, 6] [%] | overall survival [1, 7] [%] | overall survival [1, 8] [%] | distant metastasis free survival (luminal B tumor patients; FIG. 13A, luminal B by RT-qPCR) [%] | distant metastasis free survival (luminal B tumor patients; FIG. 13B, luminal B by IHC) [%] | overall survival [2, 9] [%] | overall survival [2, 10] [%] | distant metastasis free survival (HER2-positive tumors; [11]) [%] | distant metastasis free survival (HER2-positive tumors; [12]) [%] | overall survival (luminal A tumors; [13]) [%] | overall survival (luminal A tumors; [14]) [%] | distant metastasis free survival (luminal A tumor patients; [15]) [%] | distant metastasis free survival (luminal A tumor patients; [16]) [%] | overall survival (TNBC tumor patients [3]; [17]) [%] | overall survival (TNBC tumor patients [3]; FIG. 18B, TNBC defined by IHC) [%] | distant metastasis free survival (TNBC tumor patients [4]; FIG. 19A, RT-qPCR-defined TNBC) [%] | distant metastasis free survival (TNBC tumor patients [4]; FIG. 19B, IHC-defined TNBC) [%] | overall survival [1, 18] [%] | distant metastasis free survival (DMFS) (luminal B tumor patients; [19]) [%] | distant metastasis free survival (DMFS) (luminal B tumor patients; [20]) [%] | also measured |
| --- | --- | --- | --- | --- | --- | --- | --- | --- | --- | --- | --- | --- | --- | --- | --- | --- | --- | --- | --- | --- | --- |
| CC(=O)O[C@@]12CO[C@@H]1C[C@H](O)[C@@]1(C)C(=O)[C@H](O)C3=C(C)[C@@H](OC(=O)[C@H](O)[C@@H](NC(=O)OC(C)(C)C)c4ccccc4)C[C@@](O)([C@@H](OC(=O)c4ccccc4)[C@H]21)C3(C)C [docetaxel] | 95 | 97 | 96 | 90 | 89 | 87 | 86 | 80 | 78 | 95 | 97 | 92 | 93 | 84 | 88 | 74 | 82 |  |  |  | HR, overall survival ([1]; FIG. 10B, luminal B defined by IHC): 0.617; HR, overall survival ([1]; FIG. 11A, luminal B by RT-qPCR, adjusted for tumor histologic type): 0.232; HR, overall survival ([1]; FIG. 11B, luminal B by IHC, adjusted for tumor histologic type): 0.510; benefit of docetaxel treatment ([1]; luminal B tumors classified by RT-qPCR, FIGS. 10 to 19, vs vinorelbine, combined with FEC): significant benefit; HR, DMFS (luminal B tumor patients; FIG. 13A, luminal B by RT-qPCR, adjusted for metastatic lymph nodes, tumor size, histologic type, docetaxel vs vinorelbine): 0.409; HR, DMFS (luminal B tumor patients; FIG. 13B, luminal B by IHC, adjusted for metastatic lymph nodes, tumor size, histologic type, docetaxel vs vinorelbine): 0.674; HR, overall survival ([2]; FIG. 14A, HER2-positive by RT-qPCR): 1.320; HR, overall survival ([2]; FIG. 14B, HER2-positive by IHC): 1.175; HR, DMFS (HER2-positive tumors; FIG. 15A, HER2-positive by RT-qPCR): 1.070; HR, DMFS (HER2-positive tumors; FIG. 15B, HER2-positive by IHC): 0.975; HR, overall survival (luminal A tumors; FIG. 16A, luminal A by RT-qPCR): 2.471; HR, overall survival (luminal A tumors; FIG. 16B, luminal A by IHC): 0.443; outcome compared to vinorelbine (luminal A tumors; luminal A tumors by RT-qPCR, effect does not reach statistical significance): even inferior to vinorelbine; HR, DMFS (luminal A tumor patients; FIG. 17A, luminal A by RT-qPCR): 0.826; HR, DMFS (luminal A tumor patients; FIG. 17B, luminal A by IHC): 0.553; HR, overall survival (TNBC tumor patients [3]; FIG. 18A, TNBC by RT-qPCR): 0.949; HR, overall survival (TNBC tumor patients [3]; FIG. 18B, TNBC by IHC): 0.552; HR, DMFS (TNBC tumor patients [4]; FIG. 19A, TNBC by RT-qPCR): 1.211; HR, DMFS (TNBC tumor patients [4]; FIG. 19B, TNBC by IHC): 0.615; adverse effects [5]: more commonly associated with adverse effects |
| CCC1=C[C@@H]2CN(C1)Cc1c([nH]c3ccccc13)[C@@](C(=O)OC)(c1cc3c(cc1OC)N(C)[C@H]1[C@@](O)(C(=O)OC)[C@H](OC(C)=O)[C@]4(CC)C=CCN5CC[C@]31[C@@H]54)C2 [vinorelbine] |  | 88 | 92 | 78 | 85 | 91 | 89 | 81 | 77 | 98 | 93 | 90 | 88 | 83 | 80 | 78 | 72 |  |  |  |  |
| docetaxel |  |  |  |  |  |  |  |  |  |  |  |  |  |  |  |  |  | 97 | 89 | 87 | Hazard Ratio [HR], overall survival ([1]; FIG. 10A, luminal B defined by RT-qPCR, docetaxel-FEC vs vinorelbine-FEC): 0.241; HR, DMFS (luminal B tumor patients; FIG. 12A, luminal B defined by RT-qPCR, docetaxel-FEC vs vinorelbine-FEC): 0.471; HR, DMFS (luminal B tumor patients; FIG. 12B, luminal B defined by IHC, docetaxel-FEC vs vinorelbine-FEC): 0.938 |
| vinorelbine | 92 |  |  |  |  |  |  |  |  |  |  |  |  |  |  |  |  | 89 | 78 | 86 |  |
